In patent publication US7635779B2, “Oxy substituted flavones as antihyperglycemic and antidyslipidemic agents” (Council of Scientific & Industrial Research, priority 2004, dated 2009):
Like-named read-outs stand apart in the source and are kept apart here.

Experiments:
[1] = system: triton WR-1339 induced hyperlipidemic rats; assay: Triton model, antidyslipidemic activity; format: in vivo, rat; conditions: 100 mg/kg oral, plasma after 18 h; for inhibition in vivo at 100 mg/kg: Rattus norvegicus
Description: Male Charles foster rats weighing 200-225 g were divided into control, hyperlipidemic and hyperlipidemic plus drug treated groups containing six animals in each group. Hyperlipidemia was induced by administration of triton WR-1339 (200 mg/kg i.p.). All animals were maintained on a special pellet diet and water ad libitum. Compounds and standard drug were macerated with 0.2% aqueous gum acacia suspension. The suspension was fed orally at the dose of 100 mg/kg simultaneously with triton in drug treated group. The animals of control group received the same amount of gum acacia by similar route of administration. At the end of the experiment, after 18 h, blood was withdrawn from retro orbital plexus and plasma was used for the assay of total cholesterol, phospholipid and triglycerides.
Cholesterol was estimated using the kit provided by Roche Diagnostics. Cholesterol esters are enzymatically hydrolyzed by cholesterol esterase (CE) to cholesterol and free fatty acids. Free cholesterol, including that originally present, is then oxidized by cholesterol oxidase (CO) to cholest-4-en-3-one and hydrogen peroxide. The hydrogen peroxide combines with hydroxy benzoic acid (HBA) and 4-aminoantipyrine (4AAA) in the presence of peroxidase (POD) to form a chromophore (quinoneimine dye), which may be quantitated at 500-505 nm. The intensity of red colour formed is directly proportional to the concentration of total cholesterol in the specimen and measured spectrophotometrically (Searcy, C. L. Diagnostic Biochemistry, 1969, McGraw Hill, New York; Ellefson, R. D.; Caraway, W. T. Fundamentals of clinical chemistry, 1976, Ed Tietz N W, 506-515.)
Triglycerides were estimated using the kit provided by Roche Diagnostics. Lipoprotein lipase hydrolyses triglycerides to yield glycerol and fatty acids. Glycerol kinase converts glycerol to glycerol-3-phosphate, which is oxidized by glycerol phosphate oxidase to dihydroxy acetone phosphate and hydrogen peroxide. In the presence of peroxidase, hydrogen peroxide oxidatively couples with 4-aminoantipyrine and 4-chloro phenol to produce red quinonimine dye. The intensity of red colour formed is directly proportional to the concentration of triglycerides in the specimen and is measured by photometrically (Wahlefeld, A. W.; Bergmeyer, H. U. Ed. Methods of enzymatic analysis, 2nd English edition, New York, N.Y., Academic press inc, 1831-1840.).
Serum (0.2 mL) and perchloric acid (1.0 mL) was digested at 180° C. for 1-1.5 h till the solution became colorless. The liberated inorganic phosphate (Pi) was measured by the method of Fiske and Subbarow (Fiske, C. H.; Subbarow, V. J. Biol. Chem. 1925, 66, 375.). 1 mL of 2.5% ammonium molybdate (prepared in 5 N sulphuric acid) and 0.5 mL reducing agent (4-amino naphthol sulphonic acid, 0.2%), sodium metabisulphite (2.4% w/v in distilled water) was added to the above tubes and mixed well. The reaction mixture was […] with 2.5 mL of triple distilled water and kept at 60° C. in water bath for 20 min. For standard, an appropriate amount of potassium dihydrogen phosphate dissolved in triple distilled water containing 2-10 μg phosphorous (Pi) was run simultaneously with the experiment tubes. The optical density of the blue colour was recorded at 620 nm against reagent blank. The values of Pi were converted into phospholipid by multiplying with 25 (a constant calibrated from Pi value of lecithin).

db/db mice = assay: Antidyslipidemic activity in db/db mice; format: in vivo, mouse; conditions: for % Fall in lipid levels HDL: HDL-cholesterol; for % Fall in lipid levels HDL / % Fall in lipid levels Chol.: + marks a rise; for % Fall in lipid levels Chol.: cholesterol; for % Fall in lipid levels TG: triglycerides
Text: The db/db mouse is a well-characterized model of type II diabetes. The background for the db/db mouse is the C57BL/Ks strain. The major deficiency of the C57BL/KsBom-db mouse (db/db) is lack of a functional leptin receptor. This leads to defective leptin signaling and a complete lack of feedback from leptin. […] The db/db mouse develops NIDDM from around week 10. The disease is stable until week 20, where destruction of pancreatic β-cells can be recognized clinically as decreasing levels of plasma insulin and very severe hyperglycemia. The male mice are more diabetic than female and will normally die earlier. The advantage of using male mice for experimental purposes is that the fluctuations in plasma parameters are less than in the females where the estrogen cycles affects the clinical diabetes mellitus. The optimal age of db/db mice used for experiments will be from week 12 to 18 when they have developed NIDDM with diabetic dyslipidemia but still have functional β-cells in the pancreas. C57BL/KsBom-db mice 12-18 weeks, 40-50 g bred in the animal house of CDRI, Lucknow. 10 male mice were used in the experiments. The mice were housed in groups of 5 individuals in a room controlled for temperature (23+2° C.) and 12/12 hours light/dark cycle (lights on at 6.00 am). Body weight was measured daily from day 1 to day 10. All animals had free access to fresh water and to normal chow except on the days of the postprandial protocol day 6 and during the overnight fast before the OGTT on day 10. Blood glucose was checked every morning up till day 5. On day 6 postprandial protocol was employed, in this method blood glucose was checked at −0.30 min and 0 h. Test compounds were given to the treatment group whereas control group received only gum acacia (1.0%); the blood glucose was again checked at 1, 2, 3, 4 and 6 h post test compound treatment. Finally on day 10 an oral glucose tolerance test (OGTT) was performed after an overnight fasting. Blood glucose was measured at −0.30 min and test drugs were fed, blood glucose was again measured at 0.0 min post treatment, at this juncture glucose solution was given at a dose of 3 gm/kg to all the groups including control group; the profile of blood glucose was checked at 30 min, 60 min, 90 min and 120 min post glucose administration. Quantitative glucose tolerance of each animal was calculated by Area Under Curve (AUC) method (Prism Software). Comparing the AUC of experimental and control groups determined the percentage antihyperglycemic activity. Statistical comparison was made by Dunnett's test.
Cholesterol and triglycerides were estimated using the same procedures as given above.
HDL-Cholesterol was estimated using the kit provided by the Roche Diagnostics. Cholestest N HDL is a liquid reagent that directly measures the HDL-cholesterol concentration in serum by a new method that is based on the selective solubilising effect of proprietary detergent to the different lipoproteins. In the assay system, only HDL is solubilised by a special detergent; other lipoproteins are not disrupted. After HDL is selectively disrupted, HDL cholesterol is measured enzymatically (Gordon, T.; Casstelli, W. P.; Hjortland, M. C.; Kannel, W. B.; Dawber, T. R. High density lipoproteins as a protective factor against coronary heart disease, Am. J. Med. 1977, 62, 707-714.).

[2] = phospholipid, read-out: % Fall in lipid levels (Triton model) PL
[3] = total cholesterol, read-out: % Fall in lipid levels (Triton model) TC
[4] = triglycerides, read-out: % Fall in lipid levels (Triton model) TG

Row | Structure (SMILES) | % Fall in lipid levels (Triton model) PL ([1]; phospholipid) | % Fall in lipid levels (Triton model) TC ([1]; total cholesterol) | % Fall in lipid levels (Triton model) TG ([1]; triglycerides) | % Fall in lipid levels HDL (db/db mice) | % Fall in lipid levels Chol. (db/db mice) | % Fall in lipid levels TG (db/db mice) | inhibition in vivo at 100 mg/kg [1, 2] | inhibition in vivo at 100 mg/kg [1, 3] | inhibition in vivo at 100 mg/kg [1, 4]
1 | COc1cc(-c2cc(=O)c3ccc(OCCCOc4ccc(C=C5SC(=O)NC5=O)cc4)cc3o2)cc(OC)c1OC [Compound 65, 7-{3-[4-(thiazolidin-2,4-dione-5-ylidinemethyl)-phenoxy]-propoxy}-3′,4′,5′-trimethoxy-flavone] | 6% | 20% | 3% | 35.2% | 1.06% | 19.1% |  |  | 
2 | CC(C)(C)NCC(O)COc1ccc2c(=O)cc(-c3cc(OCc4ccccc4)cc(OCc4ccccc4)c3)oc2c1 (stereo not drawn) [Compound 34, 7-(3-tert-Butylamino-2-hydroxy-propoxy)-3′,5′-dibenzyloxy-flavone] |  |  |  | +19.3% | +26.9% | 33.5% | 18% | 21% | 9%
3 | CC(C)NCC(O)COc1ccc2c(=O)cc(-c3cc(O)cc(O)c3)oc2c1 (stereo not drawn) [Compound 49, 3′,5′-Dihydroxy-7-(2-hydroxy-3-iso-propylamino-propoxy)-flavone] |  |  |  | +12.7% | 17.2% | 24.1% | 28% | 32% | 32%
